# Test results from patent US20260199350A1, “FLAVONES, QUINOLINONES, QUINAZOLINONES, AND AURONES, AND USES IN CK2-MEDIATED DISEASES” (Salk Institute for Biological Studies, priority 2022, published 2026).
# Entries after “also recorded” stand apart in the source; their conditions may differ.
# What was measured:
# [1] = test system: human iPSC-derived microglia; test: Cytokine release assay in LPS-stimulated iPSC-derived microglia; format: cell-based; settings: 20 μM, panel of 36 cytokines, p<0.05
# Method: Cytokine release assay. […] Subsequently, media cleared of cells and debris was collected, snap-frozen and stored at −80° C. until processing with the Human Cytokine Array kit (R&D Systems, Catalog #ARY005). Briefly, media was diluted in Array Buffer 4 and incubated with a cocktail of biotinylated detection antibodies for 1 h at room temperature with rocking. The resulting immunocomplexes were incubated with nitrocellulose membranes spotted with capture antibodies overnight at 4° C. (see below for full list of targets). The membranes were washed 4× with Wash Buffer, then incubated with IRDye 800CW Streptavidin for 30 minutes at room temperature (1:2000 in Array Buffer 5, LI-COR #926-32230). The membranes were washed 4× and imaged with an Odyssey CLx instrument. Intensity for each spot was quantified with ImageStudio. Technical duplicate values for each target were averaged, and differential cytokine release by microglia exposed to LPS+vehicle versus vehicle only was determined (n=2 biological replicates, two-tailed t-tests, P<0.05).
# [2] = test system: CK2α1 and CK2α2; test: CK2 protein levels by Western in IL1-β-stimulated astrocytes; format: cell-based, human; settings: after 5 hours
# Method: Western blotting. For drug treatment assays, cells were treated with vehicle (DMSO) or 20 μM compound and stimulated with IL1B 10 ng/mL for 1 h, 6 h, or 24 h. Cells were dissociated with 1:1 Accutase:papain for 3 min at rt, pelleted for 5 min at 800 g, and washed twice with cold DPBS. […] Protein concentration was determined by BCA assay (Thermo Fisher). […] The blots were incubated with primary antibodies overnight at 4° C. in PBS containing 0.1% casein and 0.2% Tween-20. […] The membranes were washed 5× with 0.1% PBS-Tween20 (PBST) and incubated with secondary antibodies (1:20,000) for 1 h at rt in PBS with 0.1% casein, 0.2% Tween20, and 0.1% SDS. […] The blots were then washed 4× with PBST and 1× with DPBS. The blots were imaged using the Odyssey CLx imaging system and blots were analyzed on the ImageStudio software (LI-COR).
# [3] = test system: IL-6, IL-8, TNF-α, and MCP-1; test: Flow cytometry assay of cytokine production in HCA; format: cell-based, human; settings: 20 μM compound, 10 ng/mL IL1-β
# Method: Flow cytometry. For each well of HCA in a 6-well plate, 2 mL of fresh media with GolgiPLUG (BD #555029, 1:1000) and GolgiSTOP (BD #554724, 1:1000) with 20 μM compound or vehicle (DMSO) and IL1b 10 ng/mL or DPBS was added. The cells were incubated for 5 h at 37° C. Cells were collected with TrypLE and plated into a 96-well V-bottom plate for staining. The plate was centrifuged for 5 min, 1300 rpm, 4° C. to pellet cells, which were subsequently resuspended in 100 μL DPBS with 1 μL Zombie Violet (Biolegend #4231 13) and 5 μL Human Trustain FC block (Biolegend #422302) per well for 15 min at room temperature in the dark. The plate was centrifuged, supernatant was aspirated, and the cells were washed with 100 μL/well DPBS. Cells were fixed with 100 μL/well of Cytofix/Cytoperm (BD) for 20 min at 4° C. The plate was centrifuged, supernatant was aspirated, and cells were resuspended in 100 μL Permwash (BD) and incubated for 15 min at 4° C. The plate was centrifuged, supernatant was aspirated, and cells were incubated with 100 μL/well of Ab mix or isotype mix in Permwash (see below) for 20 min at 4° C., followed by centrifugation and 2× PermWash washes. The cells were resuspended in 100 μL DPBS and transferred to FACS tubes containing 200 ul of PBS (total volume per tube 300 μL) for analysis on FACS Analyzers (LSRII or Fortessa).
# A flow cytometry-based assay was used to assess the anti-inflammatory activity of several natural flavonoid compounds (FIG. 1A) and build corresponding structure-activity relationships. Primary human cerebellar astrocytes (HCA) were co-treated with 20 μM of each compound or vehicle (DMSO), 10 ng/mL IL1-β, and a protein transport inhibitor for 6 hours, and then processed for intracellular staining of pro-inflammatory cytokines IL-6, IL-8, TNF-α, and MCP-1. The presence of a C2-C3 double bond was the predominant determining factor for anti-inflammatory activity. […] There was no cytotoxicity associated with flavone treatment (FIG. 1E).
# [4] = test system: NF-κB; test: NF-κB-Luciferase reporter assay in THP-1 NF-κB-Lucia cells; format: cell-based, human
# Method: NF-κB-Luciferase reporter assay. THP-1 NF-κB-Lucia cells were plated at 10,000 cells per well with 10 ng/mL PMA. Three days later, media was removed and replaced with media containing LPS (1 μg/mL) and dilution series of compounds in flat bottom clear 96-well plates for 24 hours. A day later, 20 μL of media was transferred to a 96-well white plate and 50 μL of QuantiLuc Gold reagent (InvivoGen rep-qlcg5) was added per well; plate was mixed in the plate reader and luminescence was read using a Promega GloMax Reader.
# [5] = test system: microglial phagocytosis; test: Microglial phagocytosis assay (pHrodo E. coli beads); format: cell-based, human; settings: 20 μM, P=0.0015
# Method: Phagocytosis assay. […] (2-3 biological replicates). Then, 0.5 μL of pHrodo E. Coli-FITC beads (Thermo Fisher, P35366) was added per well with gentle mixing and the cells were incubated for another 4 hours. pHrodo beads only fluoresce when they are internalized in cells. Cells were then collected by scraping, washed with FACS buffer (1×DPBS, 2% BSA, and 0.05 mM EDTA pH 8.0), and counter-stained with Zombie Violet to assess viability. Live cells were analyzed on the FACS Canto instrument for geometric mean fluorescence on the FITC channel. The background FITC fluorescence value (pHrodo beads only) was subtracted from each mean, and fold-change was computed across experimental groups.
smiles,measurement,setting,value
"COc1cc(-c2cc(=O)c3c(O)cc(O)cc3o2)ccc1O [CHR, Chrysoeriol]",Release of LPS-induced pro-inflammatory cytokines,[1],significantly blocked
same,CK2α1 and CK2α2 levels,[2],reduced to baseline
same,"IL1-β-induced IL-6, IL-8, TNF-α, MCP-1 cytokine upregulation",[3],active; also recorded: strong suppressive activity
same,IC50,"[4]; Homo sapiens, THP-1, FIG. 5B, read-out: IC50 in THP-1 monocyte NF-κB-Luciferase reporter cells",< 4 µM
same,SAR summary: activity in NF-κB reporter assay and for CK2 kinase inhibition,"[4]; at 20 μM, FIG. 5A, some values sourced from Baier et al. (2017) and Lolli et al. (2012)",active
same,Microglial phagocytosis of pHrodo E. coli beads,[5],blocked
